# Source: US9115129B2, “Substituted pyrido[2,3-B]pyrazines as IP receptor agonists” (Novartis AG, priority 2012, dated 2015)
# Biological target: T1, IP receptor (Homo sapiens, UniProt P43119)
# T1 construct: expressed in transfected cells; host or cells: CHO cells stably expressing the IP receptor (CHO-IP)
# Assay: cAMP accumulation in CHO cells stably expressing the IP receptor (CHO-IP), Perkin Elmer AlphaScreen assay
# Type: cell-based
# Settings: agonist activity, 1 hour at room temperature
# Procedure: Activity of compounds at the IP receptor (IP receptor) is assessed by measuring cAMP accumulation in CHO cells stably expressing the IP receptor (CHO-IP) using the Perkin Elmer AlphaScreen assay. This technology measures the endogenous production of cAMP, in a non-radioactive luminescence proximity homogenous assay. A biological reaction occurs between streptavidin coated donor beads, biotinylated cAMP and anti-cAMP acceptor beads, bringing the donor and acceptor beads close enough together so that upon excitation a fluorescence signal is produced. On production of endogenous cAMP, competition between the biotinylated cAMP and cellular-derived cAMP causes a reduction in the fluorescent signal. The reduction in signal is proportional to the amount of cAMP being produced, thus it is possible to quantify the amount of cAMP being produced on stimulation with agonist.
# Test and reference compounds are prepared at 100× [final] in 100% DMSO, and diluted 1:3 using a Biomek Fx (Beckman Coulter). This is followed by an intermediate dilution to give 5× [final] in assay buffer (HBSS containing 5 mM HEPES, 0.1% (w/v) BSA). 5 μL of 5× [final] test compounds, reference compounds and buffer/DMSO control are then transferred to a 384-well white OptiPlate, containing 20 μL CHO-IP cell suspension (15,000 cells/well, prepared from frozen), and plate is incubated at room temperature for 1 hour. A cAMP standard curve is constructed for each experiment (concentration range of 10000 nM to 0.001 nM, in assay buffer) and 25 μL of each concentration added to the last two columns of the assay plate. The incubation is terminated by the addition of lysis buffer (dH2O; 0.3% (v v^−1) Tween-20) containing 20 units mL^−1 streptavidin coated donor beads and biotinylated cAMP (pre-incubated for 30 minutes) and 20 units mL^−1 anti-cAMP acceptor beads, which are added to the lysis buffer just before addition to the assay plate. The assay plate is then incubated at room temperature in the dark, for 60 minutes with gentle shaking, and read on the Envision plate reader (Perkin Elmer).
# The raw data of the reference compounds, test compounds and controls are converted into cAMP concentrations, using the cAMP standard curve, in Graph Pad Prism (Graph Pad Software Inc). EC50 as well as maximal values of the agonist curves are determined using a 4-parameter logistic equation. The % maximum response values of all test compounds are determined using the top of the treprostinil concentration-response curve.
# T1 sequence (P43119 whole entry): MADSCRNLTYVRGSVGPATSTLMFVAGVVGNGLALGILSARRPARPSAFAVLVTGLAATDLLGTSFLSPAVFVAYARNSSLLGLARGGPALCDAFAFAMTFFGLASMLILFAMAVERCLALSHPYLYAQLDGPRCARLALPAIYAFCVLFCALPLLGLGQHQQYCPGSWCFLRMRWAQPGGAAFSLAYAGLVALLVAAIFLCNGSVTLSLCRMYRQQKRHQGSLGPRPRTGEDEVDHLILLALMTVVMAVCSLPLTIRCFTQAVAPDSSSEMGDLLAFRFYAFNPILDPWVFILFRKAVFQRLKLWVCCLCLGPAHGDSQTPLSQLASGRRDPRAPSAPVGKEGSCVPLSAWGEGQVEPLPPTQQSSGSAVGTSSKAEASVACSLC
row,SMILES,EC50 [nM]
1,"Cc1ccc(-c2nc3c(nc2-c2ccc(C)cc2)N(CCCCCCCC(=O)O)C(=O)CC3)cc1 [Example 1.2, 8-(6-Oxo-2,3-di-p-tolyl-7,8-dihydropyrido[2,3-b]pyrazin-5(6H)-yl)octanoic acid]",1.9
2,"CCC1Cc2nc(-c3ccc(C)cc3)c(-c3ccc(C)cc3)nc2N(CCCCCCC(=O)O)C1 (centres unmarked) [Example 2.1, 7-(7-Ethyl-2,3-di-p-tolyl-7,8-dihydropyrido[2,3-b]pyrazin-5(6H)-yl)heptanoic acid]",0.4
3,"Cc1ccc(-c2nc3c(nc2-c2ccccc2)CC(C)CN3CCCCCCC(=O)O)cc1 (centres unmarked) [Example 2.2, 7-(7-Methyl-2-phenyl-3-(p-tolyl)-7,8-dihydropyrido[2,3-b]pyrazin-5(6H)-yl)heptanoic acid]",0.1
4,"Cc1ccc(-c2nc3c(nc2-c2ccccc2)CCC(C)N3CCCCCCC(=O)O)cc1 (centres unmarked) [Example 2.4, 7-(6-Methyl-2-phenyl-3-p-tolyl-7,8-dihydropyrido[2,3-b]pyrazin-5(6H)-yl)heptanoic acid]",2.4
5,"Cc1ccc(-c2nc3c(nc2-c2ccccc2C)N(CCCCCCC(=O)O)CCC3)cc1 [Example 2.5, 7-(3-o-Tolyl-2-p-tolyl-7,8-dihydropyrido[3,2-b]pyrazin-5(6H)-yl)heptanoic acid]",3.9
6,"Cc1ccc(-c2nc3c(nc2-c2ccccc2C)CCCN3CCCCCCC(=O)O)cc1 [Example 2.6, 7-(2-o-Tolyl-3-p-tolyl-7,8-dihydropyrido[3,2-b]pyrazin-5(6H)-yl)heptanoic acid]",0.6
7,"Cc1ccc(-c2nc3c(nc2-c2ccccc2F)CCCN3CCCCCCC(=O)O)cc1 [Example 2.7, 7-(2-(2-Fluorophenyl)-3-p-tolyl-7,8-dihydropyrido[2,3-b]pyrazin-5(6H)-yl)heptanoic acid]",0.3
8,"Cc1ccc(-c2nc3c(nc2-c2ccc(F)cc2)CCCN3CCCCCCC(=O)O)cc1 [Example 2.8, 7-(2-(4-Fluorophenyl)-3-p-tolyl-7,8-dihydropyrido[2,3-b]pyrazin-5(6H)-yl)heptanoic acid]",0.4
9,"Cc1ccc(-c2nc3c(nc2-c2cccc(F)c2)CCCN3CCCCCCC(=O)O)cc1 [Example 2.9, 7-(2-(3-Fluorophenyl)-3-p-tolyl-7,8-dihydropyrido[2,3-b]pyrazin-5(6H)-yl)heptanoic acid]",0.1
10,"COc1ccc(-c2nc3c(nc2-c2ccc(C)cc2)N(CCCCCCC(=O)O)CCC3)cc1 [Example 2.10, 7-(2-(4-Methoxyphenyl)-3-p-tolyl-7,8-dihydropyrido[2,3-b]pyrazin-5(6H)-yl)heptanoic acid]",0.4
11,"O=C(O)CCCCCCN1CCCc2nc(-c3ccc(F)cc3F)c(-c3ccc(F)cc3F)nc21 [Example 4, 7-(2,3-Bis(2,4-difluorophenyl)-7,8-dihydropyrido[2,3-b]pyrazin-5(6H)-yl)heptanoic acid]",0.7
12,"Cc1ccc(-c2nc3c(nc2-c2ccc(C)nc2)N(CCCCCCC(=O)O)CCC3)cn1 [Example 5, 7-(2,3-Bis(6-methylpyridin-3-yl)-7,8-dihydropyrido[2,3-b]pyrazin-5(6H)-yl)heptanoic acid]",11.7
13,"Cc1ccc(-c2nc3c(nc2-c2ccc(C)nc2)CCCN3CCCCCCC(=O)O)cc1 [Example 6, 7-(2-(6-Methylpyridin-3-yl)-3-p-tolyl-7,8-dihydropyrido[2,3-b]pyrazin-5(6H)-yl)heptanoic acid]",0.2
14,"Cc1ccc(-c2nc3c(nc2-c2ccc(C)nc2)N(CCCCCCC(=O)O)CCC3)cc1 [Example 7, 7-(3-(6-Methylpyridin-3-yl)-2-p-tolyl-7,8-dihydropyrido[2,3-b]pyrazin-5(6H)-yl)heptanoic acid]",0.2
15,"O=C(O)CCCCCCN1C(=O)CCc2nc(-c3ccc(Cl)cc3)c(-c3ccc(Cl)cc3)nc21 [Example 7.1, 7-(2,3-Bis(4-chlorophenyl)-6-oxo-7,8-dihydropyrido[2,3-b]pyrazin-5(6H)-yl)heptanoic acid]",2.3
16,"Cc1ccc(-c2nc3c(nc2-c2ccc(Cl)cc2)CCC(=O)N3CCCCCCC(=O)O)cc1 [Example 7.2, 7-(2-(4-Chlorophenyl)-6-oxo-3-p-tolyl-7,8-dihydropyrido[2,3-b]pyrazin-5(6H)-yl)heptanoic acid]",1.2
17,"Cc1ccc(-c2nc3c(nc2-c2ccc(Cl)cc2)N(CCCCCCC(=O)O)C(=O)CC3)cc1 [Example 7.3, 7-(3-(4-Chlorophenyl)-6-oxo-2-p-tolyl-7,8-dihydropyrido[2,3-b]pyrazin-5(6H)-yl)heptanoic acid]",0.3
18,"Cc1ccc(-c2nc3c(nc2-c2ccc(C)cc2)N(CCCCCCCCC(=O)O)C(=O)CC3)cc1 [Example 8, 9-(6-Oxo-2,3-di-p-tolyl-7,8-dihydropyrido[2,3-b]pyrazin-5(6H)-yl)nonanoic acid]",7
19,"Cc1ccc(-c2nc3c(nc2-c2ccc(C)cc2)N(CCCCCCCCC(=O)O)CCC3)cc1 [Example 9.1, 9-(2,3-Di-p-tolyl-7,8-dihydropyrido[2,3-b]pyrazin-5(6H)-yl)nonanoic acid]",0.6
20,"Cc1ccc(-c2nc3c(nc2-c2ccc(C)cc2)N(CCCCCC(=O)O)CCC3)cc1 [Example 10, 6-(2,3-Di-p-tolyl-7,8-dihydropyrido[2,3-b]pyrazin-5(6H)-yl)hexanoic acid]",0.3
21,"Cc1ccc(-c2nc3c(nc2-c2ccc(C)cc2)N(CCCCCCC(=O)NS(=O)(=O)Cc2ccccc2)CCC3)cc1 [Example 12, N-(Benzylsulfonyl)-7-(2,3-di-p-tolyl-7,8-dihydropyrido[2,3-b]pyrazin-5(6H)-yl)heptanamide]",5.9

# Other lines, results leading:
row,EC50 [nM],SMILES
1,1.8,"Cc1ccc(-c2nc3c(nc2-c2ccc(C)cc2)N(CCCCC(O)CC(=O)O)CCC3)cc1 (single isomer, unassigned) [Example 17b, (R)-7-(2,3-Di-p-tolyl-7,8-dihydropyrido[2,3-b]pyrazin-5(6H)-yl)-3-hydroxyheptanoic acid or (S)-7-(2,3-Di-p-tolyl-7,8-dihydropyrido[2,3-b]pyrazin-5(6H)-yl)-3-hydroxyheptanoic acid]"
2,40.2,"Cc1ccc(-c2nc3c(nc2-c2ccc(C)cc2)N(CCCCCCC(=O)NCc2ccccc2)CCC3)cc1 [Example 12.1, N-Benzyl-7-(2,3-di-p-tolyl-7,8-dihydropyrido[2,3-b]pyrazin-5(6H)-yl)heptanamide]"
3,6.4,"Cc1ccc(-c2nc3c(nc2-c2ccc(C)cc2)N(CCCCCCC(=O)NS(=O)(=O)c2ccccc2)CCC3)cc1 [Example 12.2, 7-(2,3-Di-p-tolyl-7,8-dihydropyrido[2,3-b]pyrazin-5(6H)-yl)-N-(phenylsulfonyl) heptanamide]"
4,45,"Cc1ccc(-c2nc3c(nc2-c2ccc(C)cc2)N(CCCCCCC(=O)NC(C)C)CCC3)cc1 [Example 12.3, 7-(2,3-Di-p-tolyl-7,8-dihydropyrido[2,3-b]pyrazin-5(6H)-yl)-N-isopropylheptanamide]"
5,12.1,"CNC(=O)CCCCCCN1CCCc2nc(-c3ccc(C)cc3)c(-c3ccc(C)cc3)nc21 [Example 12.4, 7-(2,3-Di-p-tolyl-7,8-dihydropyrido[2,3-b]pyrazin-5(6H)-yl)-N-methylheptanamide]"
6,40.7,"Cc1ccc(-c2nc3c(nc2-c2ccc(C)cc2)N(CCCCCCC(=O)Nc2ccccc2)CCC3)cc1 [Example 12.5, 7-(2,3-Di-p-tolyl-7,8-dihydropyrido[2,3-b]pyrazin-5(6H)-yl)-N-phenylheptanamide]"
7,4.7,"CONC(=O)CCCCCCN1CCCc2nc(-c3ccc(C)cc3)c(-c3ccc(C)cc3)nc21 [Example 12.6, 7-(2,3-Di-p-tolyl-7,8-dihydropyrido[2,3-b]pyrazin-5(6H)-yl)-N-methoxyheptanamide]"
8,75.9,"Cc1ccc(-c2nc3c(nc2-c2ccc(C)cc2)N(CCCCCCC(=O)N(C)C)CCC3)cc1 [Example 12.7, 7-(2,3-Di-p-tolyl-7,8-dihydropyrido[2,3-b]pyrazin-5(6H)-yl)-N,N-dimethylheptanamide]"
9,8,"Cc1ccc(-c2nc3c(nc2-c2ccc(C)cc2)N(CCCCCCC(=O)N(C)O)CCC3)cc1 [Example 12.8, 7-(2,3-Di-p-tolyl-7,8-dihydropyrido[2,3-b]pyrazin-5(6H)-yl)-N-hydroxy-N-methylheptanamide]"
10,0.4,"Cc1ccc(-c2nc3c(nc2-c2ccc(C)cc2)N(CCCCCCC(=O)NO)CCC3)cc1 [Example 12.9, 7-(2,3-Di-p-tolyl-7,8-dihydropyrido[2,3-b]pyrazin-5(6H)-yl)-N-hydroxyheptanamide]"
11,55.6,"Cc1ccc(-c2nc3c(nc2-c2ccc(C)cc2)N(CCCCCC(=O)NO)CCC3)cc1 [Example 12.10, 6-(2,3-Di-p-tolyl-7,8-dihydropyrido[2,3-b]pyrazin-5(6H)-yl)-N-hydroxyhexanamide]"
